Experimental data as given in patent publication US7700122B1, “Topical compositions comprising an opioid analgesic and an NMDA antagonist” (Memorial Sloan-Kettering Cancer Center, priority 1998, dated 2010).
Entries after “also recorded” stand apart in the source; their conditions may differ. Where a name gives a salt, the structure may show the parent alone.

Assays:
CD-1 mice [1] = assay: Effect of NMDA antagonists (MK801, ketamine) on topical morphine tolerance (tailflick); format: in vivo
Procedure: (§1) Systemic drugs were given subcutaneously (s.c.) in the midscapular region of the back. Intracerebroventricularly (i.c.v.) and intrathecal injections were performed under light halothane anesthesia 30 and 15 min before testing, respectively, as previously reported (Kolesnikov et al, 1996). The i.c.v. injections were administered-2 mm caudal and 2 mm lateral to the bregma at a depth of 3 mm, whereas intrathecal injections were made by lumbar puncture. Drugs were given topically on the tail by immersion of the tail in dimethylsulfoxide (DMSO) solutions containing the indicated drugs. The distal portion of the tail (3 cm) was immersed in DMSO solution for 1 min. Tailflick latencies then were determined on the region of the tail immersed in the drug, unless otherwise stated. To ensure a local effect, testing was also done with a more proximal segment of tail not exposed to the drug solution.
(§2) Analgesia was assessed with the tail-flick assay, as previously reported (Kolesnikov et al., 1996). The tail was exposed to a focused beam of light and the latency of exposure determined. […] A maximum cutoff latency of 10 sec was used to minimize tissue damage in analgesic animals. Testing was performed 30 min after systemic administration, 15 min after either i.c.v or i.t. injections or immediately after termination of topical administration into the tail. Antinociception, or analgesia, was defined quantally as a tailflick latency for an individual mouse which was at least twice its baseline latency. Group comparisons were performed using the Fisher exact test. ED50 values were determined using the Bliss program, as previously reported (Pick et al., 1993). To ensure a local action, in all studies we examined a region of the tail which was immersed in DMSO as well as a more proximal segment which was not exposed.

CD-1 mice [2] = assay: Tolerance to systemic and topical morphine and cross tolerance (tailflick); format: in vivo; conditions: for response to topical opioid after chronic systemic morphine (cross tolerance): morphine 5 mg/kg s.c. daily five days, tested day six, 1 min local exposure (morphine 15 mM, M6G 20 mM, DAMGO 2 mM)
Procedure: as §1, §2

CD-1 mice [3] = assay: Tailflick assay, topical opioid analgesia (tail immersion in DMSO solution); format: in vivo; conditions: for analgesic response in proximal tail not exposed to the opioid solution: mouse, in vivo; for Relative potency: ratio of topical ED50 against morphine; for ED50 (95% CL): topical for 1 min, tailflick assay, CD-1 mice; for analgesic response: morphine solution 7.5 mM
[4] = for Radioactivity, Tail Unexposed: unexposed tail less than 1 cm from exposed region
CD-1 mice [5] = assay: Interactions between topical and systemic or spinal morphine (tailflick); format: in vivo; conditions: for ED50: Mus musculus, topical, 0.5 h
Procedure: Testing was performed 10 min following drug administration. […] Testing was performed 30 min following drug administration.
as §1, §2

CD-1 mice [6] = conditions: subcutaneous injection in the tail, doses of 10 or 30 μg
[7] = central actions; cited from earlier work
CD-1 mice [8] = assay: Effects of opioid antagonists on topical mu analgesia (tailflick); format: in vivo; conditions: for effect of naloxone on topical opioid analgesic responses: naloxone 1 mg/kg s.c. 20 min prior, M6G 20 mM topical 1 min; for effect of 3-methoxynaltrexone on topical M6G response: 0.25 mg/kg s.c. 20 min prior, M6G 20 mM
Procedure: as §1, §2

[9] = morphine 15 mM daily, after three days
[10] = tail immersed 3 min in 100 μCi/ml in DMSO, sampled within 5 min

C[C@]12N[C@H](Cc3ccccc31)c1ccccc12 [MK801, (5R,10S)— (+)-5-methyl-10,11-dihydro-5H-dibenzo[a,d]cyclohapten-5,10-immine hydrogen maleate]
topical morphine response with intrathecal MK801 (CD-1 mice [1]; MK801 1 μg i.t., morphine 15 mM daily): lost and ineffective | topical morphine response with systemic MK801 (tolerance prevention) (CD-1 mice [1]; MK801 0.1 mg/kg s.c., morphine 15 mM daily): remained essentially unchanged for five days | reversal of established topical morphine tolerance by topical MK801 (CD-1 mice [1]; MK801 0.3 or 3 mM from fourth day): reversed the previously established tolerance | topical morphine response with topical MK801 3 mM (tolerance prevention) (CD-1 mice [1]; morphine 15 mM 1 min daily): remained essentially unchanged for five days; also recorded: prevented the loss of responsiveness | topical morphine response with topical MK801 0.15 mM (CD-1 mice [1]; [9]): intermediate response | topical morphine response with topical MK801 0.3 mM (CD-1 mice [1]; [9]): prevented the loss of responsiveness; also recorded: effectively blocking tolerance

C[C@@H](NC(=O)[C@@H](N)Cc1ccc(O)cc1)C(=O)NCC(=O)N(C)[C@@H](Cc1ccccc1)C(=O)NCCO [DAMGO, [D-Ala^2,MePhe^4,Gly(ol)^5]enkephalin]
response to topical opioid after chronic systemic morphine (cross tolerance) (CD-1 mice [2]): significantly decreased | analgesic response in proximal tail not exposed to the opioid solution (CD-1 mice [3]): no analgesic response | Relative potency (CD-1 mice [3]): 5 | ED50 (95% CL) (CD-1 mice [3]): 1.6 mM (1-2.5) | duration of action (CD-1 mice [3]; topical, FIG. 1a): lasting almost an hour | potency relative to morphine (CD-1 mice [3]; topical, fixed exposure time): over 5 fold

[^125I]Morphine [^125I-Morphine]
Radioactivity, Blood [4, 10]: 69 ± 18 cpm/g | Radioactivity, Spinal cord [4, 10]: 71 ± 12 cpm/g | Radioactivity, Tail Exposed [4, 10]: 38,460 ± 3,455 cpm/g | Radioactivity, Tail Unexposed [4]: 234 ± 51 cpm/g

CNC1(c2ccccc2Cl)CCCCC1=O (stereo not shown) [ketamine, 2-(2-chlorophenyl)-2-(methylamino) cyclohexanone]
topical morphine tolerance with intrathecal ketamine (CD-1 mice [1]; data not shown): ineffective | topical morphine tolerance with systemic ketamine (CD-1 mice [1]; data not shown): prevented the development of tolerance to topical morphine | reversal of established topical morphine tolerance by topical ketamine 36 mM (CD-1 mice [1]; ketamine from day 3 through day 6): completely restored morphine analgesia | topical morphine tolerance with topical ketamine 3.6 mM (CD-1 mice [1]; morphine 15 mM once daily): significantly lessened the loss of morphine analgesic response after three days; also recorded: delayed the appearance of tolerance | topical morphine tolerance with topical ketamine 36 mM (CD-1 mice [1]; morphine 15 mM once daily): prevented tolerance up to six days; also recorded: effectively blocked tolerance | analgesia of ketamine alone (CD-1 mice [1]; topical 36 mM): did not produce significant analgesia; also recorded: no appreciable effect

CN1CC[C@]23c4c5ccc(O)c4O[C@H]2[C@@H](O)C=C[C@H]3[C@H]1C5 [Morphine]
day 3 response, systemic versus topical group (CD-1 mice [2]; 5 mg/kg s.c. or topical 15 mM 1 min daily): significantly greater than the topical group | ED50 (CD-1 mice [2]; Mus musculus, topical, read-out: ED50 (95% confidence limits), Systemic, Naive): 4.3 mg/kg | ED50 (95% confidence limits), Topical, Tolerant (CD-1 mice [2]; after topical morphine 15 mM daily for two days): 78 mM (49, 123) | response to topical opioid after chronic systemic morphine (cross tolerance) (CD-1 mice [2]): significantly decreased | ED50 (95% confidence limits), Topical, Naive (CD-1 mice [2]; naive mice, topical morphine): 8.3 mM (4.1-10.2) | response to daily topical morphine alone after three days (CD-1 mice [2]; topical 15 mM, 1 min, daily): lost and profound tolerance by the third day and complete loss analgesia by the third day | response to spinal morphine alone (CD-1 mice [5]; 100 ng, i.t.): no observable action | response to systemic morphine alone (CD-1 mice [5]; 1 mg/kg, s.c.): 10% | potentiation of analgesic potency of systemic morphine by topical morphine (CD-1 mice [5]; 30 min): ~7 fold | ED50 (CD-1 mice [5]; read-out: ED50 value, Systemic + topical): 0.66 mg/kg | ED50 (CD-1 mice [5]; read-out: ED50 value, Systemic alone): 4.3 mg/kg | ED50 value, Spinal alone (CD-1 mice [5]; intrathecal morphine alone, tested 15 min): 550 ng (386-822) | ED50 value, Spinal + topical (CD-1 mice [5]; intrathecal morphine with fixed topical morphine 15 mM, tested 15 min): 46 ng (21-84) | enhancement of potency of intrathecal morphine by topical morphine (CD-1 mice [5]; mouse, in vivo): ~12 fold | response of topical plus spinal morphine versus sum of routes (CD-1 mice [5]; topical 15 mM 2 min + 100 ng i.t., 10 min): significantly more active than the sum of the two individual routes alone | response of topical plus systemic morphine versus sum of routes (CD-1 mice [5]; topical 15 mM + 1 mg/kg s.c., 30 min): significantly greater than the sum of the two ones alone | response to topical morphine alone at 1 min (CD-1 mice [5]; topical morphine 15 mM, 2 min exposure, 1 min after): 80% | response to topical morphine alone at 10 min (CD-1 mice [5]; topical morphine 15 mM, 10 min after): 30% | response to topical morphine alone at 30 min (CD-1 mice [5]; topical morphine 15 mM, 30 min after): no observable response; also recorded: No analgesia | analgesic response (CD-1 mice [3]; exposure 30 seconds): 25% | analgesic response (CD-1 mice [3]; exposure 2 min): 80% | analgesic response (CD-1 mice [3]; exposure one minute): 50% | analgesic response in proximal tail not exposed to the opioid solution (CD-1 mice [3]): no analgesic response | duration of the response (CD-1 mice [3]; topical, FIG. 1a): less than 30 min | onset of analgesia after removal of the tail from the opioid solution (CD-1 mice [3]; topical, shortest time tested): detectable within one minute

CN1CC[C@]23c4c5ccc(O)c4O[C@H]2[C@@H](O[C@@H]2O[C@H](C(=O)O)[C@@H](O)[C@H](O)[C@H]2O)C=C[C@H]3[C@H]1C5 [M6G, morphine-6β-glucuronide]
response to topical opioid after chronic systemic morphine (cross tolerance) (CD-1 mice [2]): no change | ceiling effect of analgesia (CD-1 mice [6]): 30% | central activity relative to morphine [7]: approximately 100 fold | analgesic response in proximal tail not exposed to the opioid solution (CD-1 mice [3]): did not display analgesia | Relative potency (CD-1 mice [3]): 0.9 | ED50 (95% CL) (CD-1 mice [3]): 9.3 mM (7-14) | topical analgesic response (CD-1 mice [3]; topical paradigm, tailflick): full analgesic response

C=CCN1CC[C@]23c4c5ccc(O)c4O[C@H]2C(=O)CC[C@@]3(O)[C@H]1C5 [naloxone]
effect of naloxone on topical opioid analgesic responses (CD-1 mice [8]; morphine 15 mM, DAMGO 2 mM): easily reversed; also recorded: readily reversed | effect of naloxone on topical opioid analgesic responses (CD-1 mice [8]; morphine 15 mM, DAMGO 2 mM, listed as Naloxone): significantly reduced the responses for all agonists

COc1ccc2c3c1O[C@H]1C(=O)CC[C@@]4(O)[C@@H](C2)N(CC2CC2)CC[C@]314 [3-MeONtx, 3-methoxynaltrexone]
effect of 3-methoxynaltrexone on topical M6G response (CD-1 mice [8]): significantly lowered the response only for M6G | effect of 3-methoxynaltrexone on topical M6G response (CD-1 mice [8]; listed as 3MeONtx): significantly lowered the M6G response | effect of 3-methoxynaltrexone on topical morphine or DAMGO analgesia (CD-1 mice [8]; 0.25 mg/kg s.c., morphine 15 mM, DAMGO 2 mM): inactive

[^125I]DAMGO [^125I-DAMGO]
Radioactivity, Blood [4, 10]: <50 cpm/g | Radioactivity, Brain [4, 10]: <50 cpm/g | Radioactivity, Spinal cord [4, 10]: <50 cpm/g | Radioactivity, Tail Exposed [4, 10]: 45,280 ± 2,637 cpm/g | Radioactivity, Tail Unexposed [4]: 157 ± 51 cpm/g
